# Assay results published in patent US20120028358A1, “METHOD FOR INCREASING RETROVIRAL INFECTIVITY” (priority 2010, published 2012).
# “Also recorded” adds a separate entry of the source.
# Key:
# [1] = system: lentiviruses pLemiR and pLVX-DsRed-Monomer-C1; experiment: Lentiviral vector infection of PMVEC; assay type: cell-based, rat; settings: 1 μmol/L; VSV-G based viral particles
# Text: (§1) Vectors and delivery systems: pBMN-GFP (Orbigen, Inc., San Diego, Calif.), a retroviral vector that expresses GFP driven by the MMLV's promoter in Phoenix and other cells was used. In some experiments Murine Stem Cell Virus (MSCV) expressing mCherry and the hybrid retroviral vector Friend Murine Embryonic-stem cell Virus (FMEV) [for Friend Mink Cell Focus-forming (FMCF)/Murine Embryonic Stem cell Virus (MESV)](31) expressing DsRed2 were used in addition to MMLV. Two lentiviral vectors pLemiR (Open Biosystems, Huntsville, Ala.) and pLVX-DsRed-Monomer-C1 (Clontech Laboratories, Inc., Mountain View, Calif.) harboring turboRFP and DsRed as reporters were also used for comparison to gamma-retroviruses. Packaging cells were transfected with retroviral vectors using FuGENE 6 reagent following the manufacturer's instructions. For virus propagation, packaging cells were cultured in growth medium for 12-18 hours. Virus was collected with cultured medium, filtered, supplemented with hexadimethrine bromide (polybrene) to a final concentration of 4 μg/ml and applied directly to target cells.
# (§2) Gamma-retroviral backbones containing genes encoding fluorescent proteins as reporters were propagated in Phoenix ecotropic packaging cells. Viral-conditioned supernatant was collected and applied to target cells (rat pulmonary microvascular endothelial cells, PMVEC).
# [2] = system: T47D cells; experiment: Non-integrated and integrated viral DNA in infected T47D cells (qPCR); assay type: cell-based, human; settings: 1 μmol/L, any time after infection
# Procedure: Viral DNA measurement: The total DNA from infected cells was extracted by DNeasy Blood & tissue kit (Qiagen). The level of viral DNA in total DNA extract isolated from infected cells was determined by quantitative PCR using iScript One-Step RT-PCR kit (with SYBR Green, Bio-Rad, 170-8893) with primers for the GFP or the internal ribosome entry site regions of the viral DNA following the manufacturer's instructions. No reverse transcriptase was used in order to exclude contamination from a viral RNA signal. In integration studies, the total DNA isolated from infected cells was first resolved in a 0.8% agarose gel. […] DNA from each fraction was extracted and analyzed for the presence of viral sequences by qPCR as previously described.
# Similar to previous experiments, the total cellular DNA was isolated and resolved on a 0.8% agarose gel. […] Similar to our results in endothelial cells (FIG. 13) the level of free (i.e. non-integrated) viral DNA was elevated 6 hours after infection and then gradually declined towards baseline (FIG. 15A).
# [3] = system: U87MG cells; experiment: Amphotropic MMLV infection of U87MG cells; assay type: cell-based, human; settings: 1 μmol/L, 72 hours
# Procedure: (§3) Cell cultures: Phoenix Retroviral Expression System ecotropic and amphotropic packaging cells were purchased from Orbigen, Inc. (San Diego, Calif.). […] Rat pulmonary microvascular endothelial cells (PMVEC), were obtained from our cell culture core at the University of South Alabama (King J, et al. Structural and functional characteristics of lung macro and microvascular endothelial phenotypes. Microvascular Res. 2004, March, 67(2). 139-151). Human glioblastoma cells (U87MG), and human mammary carcinoma cells (T47D) were obtained from ATCC. All cells were cultured in DMEM, 10% FBS, 2 mmol L-Glutamine and used for experiments at passages 4-9. All cells were grown in humidified incubators at 37° C. in 5% CO2. Cells were harvested by 0.05% trypsin/0.53 mM EDTA digestion, washed, re-suspended in cultured medium and analyzed directly by FACScan in the University of South Alabama Flow Cytometry Core. For cell cycle analysis cellular DNA was stained with […] of propridium iodide for 20 minutes as described elsewhere (48) and then analyzed by FACScan.
# [4] = system: rat PMVEC; experiment: Intensity of GFP expression in infected target cells (pro-viral LTR promoter); assay type: cell-based; settings: mifepristone in conditioned medium
# Procedure: Flow cytometry analysis: Cells were harvested by 0.05% trypsin/0.53 mM EDTA digestion, washed, re-suspended in cultured medium and analyzed directly by FACScan in the University of South Alabama Flow Cytometry Core.
# To assess whether dexamethasone had the same stimulatory effect on the LTR promoter of the pro-virus integrated into the target cells that it did on packaging cells (FIG. 1A), the expression level of GFP in infected cells was also measured. […] Dexamethasone had no effect on cell growth over 7 days in either retrovirus producing or target cells (data not shown).
# [5] = system: rat pulmonary microvascular endothelial cells (PMVEC); experiment: Percent GFP-positive (infected) target cells after conditioned medium from Phoenix cells; assay type: cell-based
# [6] = system: rat PMVEC; experiment: Gamma-retroviral infection efficiency of PMVEC (percent fluorescent cells by FACS); assay type: cell-based
# Procedure: as §3, §1, §2
# [7] = system: Phoenix cells; experiment: Viral titer of conditioned medium by quantitative RT-PCR (GFP region of viral RNA); assay type: cell-based
# Procedure: Vectors and delivery systems: pBMN-GFP, a retroviral vector that expresses GFP driven by the MMLV's promoter in Phoenix and other cells was purchased from Orbigen, Inc. (San Diego, Calif.). Packaging cells were transfected with pBMN-GFP using FuGENE 6 reagent following manufacture instructions. Stably transfected Phoenix cells were selected by GFP expression using flow cytometry and then used for experiments. For virus propagation, packaging cells were cultured in growth medium for at least 12 hours. Virus was collected with cultured medium, filtered, supplemented with hexadimethrine bromide (polybrene) to a final concentration of 4 μg/ml and applied directly to target cells. The level of viral RNA in collected medium was determined by quantitative PCR using iScript One-Step RT-PCR kit (with SYBR Green, Bio-Rad, 170-8893) using primers for the GFP region of the viral RNA following manufacture instructions.
# We first tested the ability of dexamethasone to increase retroviral protein production in Phoenix cells with integrated pro-viruses using GFP as a reporter. […] We then analyzed the Phoenix cells for GFP expression by flow cytometry. […] To determine if this increase in GFP expression correlated with an increase in viral titer in the supernatant, we performed quantitative RT-PCR on the conditioned medium using primers for the GFP region of the viral RNA.
# [8] = system: rat PMVEC; experiment: Infectivity of conditioned medium stored at 37° C. (viral particle survival); assay type: cell-based; settings: CO2 incubator at 37° C.
structure (smiles),measurement,setting,value
"CC#C[C@]1(O)CC[C@H]2[C@@H]3CCC4=CC(=O)CCC4=C3[C@@H](c3ccc(N(C)C)cc3)C[C@@]21C [mifepristone, 11-beta-(4-dimethylaminophenyl)-17-beta-hydroxy-17-alpha-(1-propynyl)-estra-4,9-dien-3-one]",Target cell infectivity of lentiviral vectors,[1],did not increase
same,Amount of free viral DNA versus vehicle,[2],no difference
same,Amount of incorporated viral DNA versus vehicle,[2],no difference
same,Retroviral infectivity,[3],increased
same,GFP expression in infected target cells,[4],did not alter
same,Target cell infectivity by place of addition (packaging cells or collected medium),"[5]; 2 μmol mifepristone, 100 nmol dexamethasone (FIG. 7B)",increased target cell infectivity to a similar degree
same,Percentage of infected cells,[5]; mifepristone at 2 μmol and higher concentration,more than doubled
same,Enhancement at earlier time points after re-seeding (survival of non-integrated viral intermediates),[6]; 1 μmol/L,did not demonstrate an enhanced effect
same,Percentage of GFP positive (infected) cells,"[6]; 1 μmol/L added 1 hour after removal of virus (1 hour infection), vehicle 2.1",3.7%
same,Infection of non-dividing (100% confluent) cells,"[6]; 1 μmol/L, MMLV",no effect
same,Percentage of infected cells,"[6]; 1 μmol/L, ecotropic MMLV, MSCV, FMEV backbones",almost doubled
same,Increase of infectivity rate,"[6]; 1 μmol/L, growth-arrested PMVEC re-seeded, all time points",about 2.9 fold
same,Effect on enhancing effect of dexamethasone on virus production,[7]; dexamethasone and mifepristone added to packaging cells at the same time,partially blocks; also recorded: completely inhibited
same,Viral levels in the medium,"[7]; mifepristone 0-20 μmol, without dexamethasone",no effect
same,Decline of infectivity of conditioned medium over each 24 hour period,[8],not attenuated
